For two compounds, IC50 and EC50 results are on record in ChEMBL document CHEMBL1201862, “PubChem BioAssay data set” (2004).

Assay [1] deals with T1, Kappa-type opioid receptor (Homo sapiens, UniProt P41145). Type of assay: functional.
For assay [2], the target named is T1, Kappa-type opioid receptor. Type of assay: functional. This is another data set of the same source.
Assay [3] concerns the target T2, Short transient receptor potential channel 4 (Mus musculus, UniProt Q9QUQ5).
T2 sequence (Q9QUQ5 whole entry): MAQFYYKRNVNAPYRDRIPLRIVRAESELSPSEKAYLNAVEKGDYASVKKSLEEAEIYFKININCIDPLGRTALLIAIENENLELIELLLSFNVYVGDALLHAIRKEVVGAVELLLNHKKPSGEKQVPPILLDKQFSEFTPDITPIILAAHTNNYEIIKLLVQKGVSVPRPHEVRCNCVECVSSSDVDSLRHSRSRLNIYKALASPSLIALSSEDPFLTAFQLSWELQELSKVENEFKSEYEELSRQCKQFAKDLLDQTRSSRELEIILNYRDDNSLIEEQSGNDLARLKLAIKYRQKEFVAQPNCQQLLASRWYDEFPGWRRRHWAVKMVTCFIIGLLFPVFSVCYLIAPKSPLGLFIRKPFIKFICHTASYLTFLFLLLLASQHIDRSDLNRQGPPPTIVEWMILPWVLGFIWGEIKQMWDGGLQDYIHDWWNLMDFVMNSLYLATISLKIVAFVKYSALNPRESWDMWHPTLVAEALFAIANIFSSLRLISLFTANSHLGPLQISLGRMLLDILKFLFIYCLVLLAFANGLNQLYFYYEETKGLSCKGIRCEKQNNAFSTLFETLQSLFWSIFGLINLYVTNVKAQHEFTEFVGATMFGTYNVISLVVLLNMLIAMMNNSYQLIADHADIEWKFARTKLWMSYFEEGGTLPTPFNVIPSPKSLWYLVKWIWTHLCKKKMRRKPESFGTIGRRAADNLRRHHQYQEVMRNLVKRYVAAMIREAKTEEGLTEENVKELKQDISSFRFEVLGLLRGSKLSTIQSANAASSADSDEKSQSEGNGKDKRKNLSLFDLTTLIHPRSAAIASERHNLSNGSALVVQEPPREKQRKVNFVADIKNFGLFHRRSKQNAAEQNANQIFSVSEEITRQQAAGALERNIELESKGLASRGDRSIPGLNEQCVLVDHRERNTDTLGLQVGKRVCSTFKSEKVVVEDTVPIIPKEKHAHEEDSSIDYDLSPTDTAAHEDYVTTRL
The assay can be described thus: mouse TRPC4 channel inhibitors, dose response, cell-based, HEK293 TRPC4/mu-opioid, Fluo-4 calcium (AID 434942).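 Further: potency of inhibitors blocking the TRPC4 calcium response.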 The assay is classed as functional.

Assay [4] concerns the target T3, Protein skinhead-1 (Caenorhabditis elegans, UniProt P34707).
T3 sequence (P34707 whole entry): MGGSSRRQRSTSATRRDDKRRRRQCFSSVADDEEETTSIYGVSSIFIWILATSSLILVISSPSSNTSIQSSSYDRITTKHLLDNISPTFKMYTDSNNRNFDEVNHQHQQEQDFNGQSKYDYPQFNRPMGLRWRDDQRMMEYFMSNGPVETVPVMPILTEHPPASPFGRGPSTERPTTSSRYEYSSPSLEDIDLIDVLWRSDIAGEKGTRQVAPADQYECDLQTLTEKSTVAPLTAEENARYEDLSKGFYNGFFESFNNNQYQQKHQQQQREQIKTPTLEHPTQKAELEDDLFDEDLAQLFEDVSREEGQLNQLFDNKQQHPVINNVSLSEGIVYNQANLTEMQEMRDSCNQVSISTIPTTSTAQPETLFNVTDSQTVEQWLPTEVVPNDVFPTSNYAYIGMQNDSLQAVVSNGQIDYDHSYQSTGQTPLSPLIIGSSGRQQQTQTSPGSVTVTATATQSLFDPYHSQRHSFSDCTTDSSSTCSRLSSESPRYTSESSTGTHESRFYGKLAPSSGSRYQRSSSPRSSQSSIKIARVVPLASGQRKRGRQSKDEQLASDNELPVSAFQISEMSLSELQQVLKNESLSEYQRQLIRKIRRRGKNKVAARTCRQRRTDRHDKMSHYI
The assay is classed as functional.

The target in assay [5] is T4, Delta-type opioid receptor (Homo sapiens, UniProt P41143). The assay can be described thus: HTS Image-Based Screen for Antagonists of the DOR Receptor. [Related pubchem assays (depositor defined):AID1777, AID1785, AID1786, AID2133]. The assay is classed as functional.
T4 sequence (P41143 whole entry): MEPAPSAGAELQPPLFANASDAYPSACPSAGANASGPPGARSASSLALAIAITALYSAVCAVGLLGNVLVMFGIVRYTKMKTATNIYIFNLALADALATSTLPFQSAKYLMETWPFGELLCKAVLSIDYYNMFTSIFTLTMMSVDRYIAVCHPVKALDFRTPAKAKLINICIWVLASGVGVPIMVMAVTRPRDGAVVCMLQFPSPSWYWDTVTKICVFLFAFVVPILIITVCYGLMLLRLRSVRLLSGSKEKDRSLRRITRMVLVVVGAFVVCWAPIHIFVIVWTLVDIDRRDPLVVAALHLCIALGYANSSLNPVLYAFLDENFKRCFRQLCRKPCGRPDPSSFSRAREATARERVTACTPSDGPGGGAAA
The target in assay [6] is T4, Delta-type opioid receptor. Kind of assay: HTS Image-Based Screen for Agonists of the DOR Receptor. [Related pubchem assays (depositor defined):AID1777, AID1786, AID2133]. Type of assay: functional.
Assay [7] has as its target Mu-type opioid receptor (Homo sapiens, UniProt P35372). Kind of assay: HTS Image-Based Screen for Agonists of the MOR Receptor. [Related pubchem assays (depositor defined):AID1777, AID1785, AID1786, AID2133]. Type of assay: functional.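 Further: imaging of beta-arrestin GFP recruitment into spots after receptor activation.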
The target in assay [8] is Beta-galactosidase (Escherichia coli, UniProt Q8VNN2). Type of assay: functional.
Beta-galactosidase, sequence (Q8VNN2 whole entry): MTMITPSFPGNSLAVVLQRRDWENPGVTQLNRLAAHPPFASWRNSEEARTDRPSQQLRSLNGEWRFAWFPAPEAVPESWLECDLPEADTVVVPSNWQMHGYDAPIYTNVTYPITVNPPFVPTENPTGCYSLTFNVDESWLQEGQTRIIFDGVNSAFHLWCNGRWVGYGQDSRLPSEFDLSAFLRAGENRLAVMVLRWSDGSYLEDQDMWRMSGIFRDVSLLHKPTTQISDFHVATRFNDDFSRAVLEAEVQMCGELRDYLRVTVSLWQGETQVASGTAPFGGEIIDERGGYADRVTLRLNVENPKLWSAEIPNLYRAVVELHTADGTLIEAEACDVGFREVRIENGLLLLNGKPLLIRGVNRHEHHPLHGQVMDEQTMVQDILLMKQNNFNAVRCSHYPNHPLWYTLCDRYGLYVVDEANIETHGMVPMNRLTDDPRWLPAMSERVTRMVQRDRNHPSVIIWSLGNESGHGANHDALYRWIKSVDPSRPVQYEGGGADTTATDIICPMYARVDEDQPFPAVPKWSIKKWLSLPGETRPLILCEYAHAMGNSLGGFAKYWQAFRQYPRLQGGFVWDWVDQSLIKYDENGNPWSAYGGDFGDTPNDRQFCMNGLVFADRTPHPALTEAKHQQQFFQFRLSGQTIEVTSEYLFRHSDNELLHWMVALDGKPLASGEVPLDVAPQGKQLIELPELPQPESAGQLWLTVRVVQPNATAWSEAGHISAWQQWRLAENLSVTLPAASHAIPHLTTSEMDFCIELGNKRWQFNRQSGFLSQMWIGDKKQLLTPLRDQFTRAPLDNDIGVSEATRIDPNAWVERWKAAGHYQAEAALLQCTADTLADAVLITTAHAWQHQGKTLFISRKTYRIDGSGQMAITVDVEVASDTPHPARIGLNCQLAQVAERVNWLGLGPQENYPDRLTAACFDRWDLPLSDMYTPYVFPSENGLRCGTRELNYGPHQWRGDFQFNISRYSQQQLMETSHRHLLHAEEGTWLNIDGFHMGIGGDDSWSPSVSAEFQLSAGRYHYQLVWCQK
The nature of assay [9]: Luminescence Cell-Based Dose Response HTS to Identify Activators of Luciferase Translation or Activity in H4 […] Cells. [Related pubchem assays: 1829 (Project Summary), 1814 (Primary HTS)]. The assay is classed as functional.
Assay [10] addresses T5, Tyrosine-protein phosphatase non-receptor type 22 (Homo sapiens, UniProt Q9Y2R2).
T5 sequence (Q9Y2R2 whole entry): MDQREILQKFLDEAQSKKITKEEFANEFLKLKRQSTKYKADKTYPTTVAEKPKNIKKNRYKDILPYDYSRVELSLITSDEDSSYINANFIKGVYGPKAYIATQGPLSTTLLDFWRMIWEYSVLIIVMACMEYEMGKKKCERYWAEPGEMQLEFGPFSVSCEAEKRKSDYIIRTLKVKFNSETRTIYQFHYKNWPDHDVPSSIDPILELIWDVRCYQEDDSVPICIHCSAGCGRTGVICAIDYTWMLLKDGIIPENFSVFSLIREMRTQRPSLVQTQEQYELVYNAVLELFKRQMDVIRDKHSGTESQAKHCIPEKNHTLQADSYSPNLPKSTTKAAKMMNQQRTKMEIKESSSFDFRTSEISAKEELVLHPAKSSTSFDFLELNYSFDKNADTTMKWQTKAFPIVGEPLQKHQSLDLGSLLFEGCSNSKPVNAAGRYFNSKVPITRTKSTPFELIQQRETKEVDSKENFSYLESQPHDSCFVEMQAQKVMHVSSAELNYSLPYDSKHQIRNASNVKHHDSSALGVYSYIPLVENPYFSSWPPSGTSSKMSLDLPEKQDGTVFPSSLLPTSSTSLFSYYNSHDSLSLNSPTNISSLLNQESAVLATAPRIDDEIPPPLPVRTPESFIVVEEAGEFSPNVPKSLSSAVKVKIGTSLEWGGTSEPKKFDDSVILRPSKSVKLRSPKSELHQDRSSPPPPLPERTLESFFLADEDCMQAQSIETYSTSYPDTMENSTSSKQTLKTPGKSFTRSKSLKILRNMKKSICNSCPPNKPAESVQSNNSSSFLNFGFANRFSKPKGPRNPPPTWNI
The assay is classed as functional.

The nature of assay [11]: NIH-3T3 fibroblast cytotoxicity, dose response, cytotoxicity control, cell-based, fluorescence, Alamar Blue, secondary assay (AID 2327).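 Further: NIH-3T3 mouse fibroblasts cultured with fluconazole at 8 µg/mL.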 Type of assay: functional. Background: Resazurin is reduced to fluorescent resorufin, in cell work by metabolically active cells.
The target in assay [12] is Mitogen-activated protein kinase 10 (Homo sapiens, UniProt P53779). Kind of assay: Dose response biochemical screening assay for inhibitors of c-Jun N-Terminal Kinase 3 (JNK3). [Related pubchem assays: 746 ].
Mitogen-activated protein kinase 10, sequence (P53779 whole entry): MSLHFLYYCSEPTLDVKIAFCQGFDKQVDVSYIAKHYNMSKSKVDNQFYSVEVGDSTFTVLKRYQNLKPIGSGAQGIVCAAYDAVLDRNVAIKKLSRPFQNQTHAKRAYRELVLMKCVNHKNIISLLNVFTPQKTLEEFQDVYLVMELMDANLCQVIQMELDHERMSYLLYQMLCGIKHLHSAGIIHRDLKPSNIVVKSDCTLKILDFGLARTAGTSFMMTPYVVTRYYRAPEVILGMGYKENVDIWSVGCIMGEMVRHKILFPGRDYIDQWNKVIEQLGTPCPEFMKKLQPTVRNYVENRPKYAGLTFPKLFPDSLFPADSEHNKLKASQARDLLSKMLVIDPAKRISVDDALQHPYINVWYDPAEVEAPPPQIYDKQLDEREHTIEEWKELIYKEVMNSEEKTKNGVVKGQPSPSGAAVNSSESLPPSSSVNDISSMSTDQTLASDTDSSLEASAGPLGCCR
The target in assay [13] is T6, Dual specificity protein phosphatase 6 (Rattus norvegicus, UniProt Q64346).
T6 sequence (Q64346 whole entry): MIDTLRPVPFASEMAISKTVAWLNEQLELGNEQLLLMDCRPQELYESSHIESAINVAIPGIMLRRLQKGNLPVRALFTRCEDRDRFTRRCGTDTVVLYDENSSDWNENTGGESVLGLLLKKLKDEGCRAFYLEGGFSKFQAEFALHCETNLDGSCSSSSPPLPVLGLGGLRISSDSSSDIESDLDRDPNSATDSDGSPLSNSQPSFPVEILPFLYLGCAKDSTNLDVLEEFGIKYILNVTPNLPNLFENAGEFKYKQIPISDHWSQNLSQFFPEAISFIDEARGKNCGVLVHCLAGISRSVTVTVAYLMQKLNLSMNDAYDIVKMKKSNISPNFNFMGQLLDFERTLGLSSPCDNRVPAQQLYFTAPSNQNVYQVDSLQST
The assay can be described thus: MKP-3 phosphatase inhibitors, primary screen, biochemical, rat enzyme, in vitro (AID 425).

The nature of assay [14]: C. albicans growth with fluconazole, confirmation, fluorescence, retest (AID 2467). Type of assay: functional, cell-based.
Assay [15] has as its target T5, Tyrosine-protein phosphatase non-receptor type 22. Type of assay: functional. This is another data set of the same source.
In assay [16] the target is T7, Tyrosine-protein phosphatase non-receptor type 7 (Homo sapiens, UniProt P35236).
T7 sequence (P35236 whole entry): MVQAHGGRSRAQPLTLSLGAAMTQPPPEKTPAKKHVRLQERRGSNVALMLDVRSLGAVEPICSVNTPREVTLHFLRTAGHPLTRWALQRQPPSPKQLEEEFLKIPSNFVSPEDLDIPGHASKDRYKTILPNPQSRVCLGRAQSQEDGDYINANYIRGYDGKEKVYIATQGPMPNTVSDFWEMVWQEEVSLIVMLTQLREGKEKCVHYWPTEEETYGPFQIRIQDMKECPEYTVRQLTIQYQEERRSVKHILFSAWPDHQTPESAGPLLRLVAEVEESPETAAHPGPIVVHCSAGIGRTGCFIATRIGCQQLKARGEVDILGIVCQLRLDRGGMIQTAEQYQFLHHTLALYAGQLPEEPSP
The assay is classed as functional.

Assay [17] has as its target T8, Streptokinase A (Streptococcus pyogenes serotype M1, UniProt P10520).
T8 sequence (P10520 whole entry): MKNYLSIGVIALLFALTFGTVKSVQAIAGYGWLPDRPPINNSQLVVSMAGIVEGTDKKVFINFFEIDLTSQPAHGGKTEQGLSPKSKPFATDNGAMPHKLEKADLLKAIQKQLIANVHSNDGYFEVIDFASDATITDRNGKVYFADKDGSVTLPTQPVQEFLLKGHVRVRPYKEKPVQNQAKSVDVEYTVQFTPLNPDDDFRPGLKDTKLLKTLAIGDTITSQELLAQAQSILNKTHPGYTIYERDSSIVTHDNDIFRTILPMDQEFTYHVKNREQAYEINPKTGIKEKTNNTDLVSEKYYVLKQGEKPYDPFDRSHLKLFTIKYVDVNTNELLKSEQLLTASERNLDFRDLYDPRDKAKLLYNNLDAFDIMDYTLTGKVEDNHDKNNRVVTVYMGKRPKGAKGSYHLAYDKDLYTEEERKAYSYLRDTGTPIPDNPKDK
Kind of assay: S. pyogenes streptokinase expression inhibitors, potency, dose response, plasminogen activation absorbance, OD405 (AID 1914).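 Further: secreted streptokinase activity via plasminogen activation per viability signal from cell pellet.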 The assay is classed as functional, Streptococcus pyogenes M1 GAS.

The test system of assay [18] is Streptococcus. Kind of assay: Group A Streptococcus viability loss, dose response, counter-screen for streptokinase expression inhibitor project, luminescence, BacTiterGlo (AID 1915).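 Further: potency for reduction of bacterial viability or growth.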 Type of assay: functional, organism-based. In general terms: The purpose of a counterscreen is to sort out artefacts and off-target activity.
Assay [19] relates to H4. Kind of assay: Luminescence Cell-Based Dose Response HTS to Identify Activators of 5'UTR Stem-Loop Driven Prion Protein mRNA Translation in H4 Neuroglioblastoma Cells. [Related pubchem assays: 1829 (Project Summary), 1814 (Primary HTS)]. Type of assay: functional. To be noted: Homo sapiens.
Assay [20] concerns Streptococcus sp. 'group A'. Kind of assay: growth inhibition of control SK(-) GAS strain, dose response, counter-screen for streptokinase expression inhibitor project, luminescence, kanamycin, BacTiterGlo, confirmation (AID 1900). The assay is classed as functional, organism-based.
Assay [21] concerns the target T9, Calpain-2 catalytic subunit (Sus scrofa, UniProt P43367).
T9 sequence (P43367 whole entry): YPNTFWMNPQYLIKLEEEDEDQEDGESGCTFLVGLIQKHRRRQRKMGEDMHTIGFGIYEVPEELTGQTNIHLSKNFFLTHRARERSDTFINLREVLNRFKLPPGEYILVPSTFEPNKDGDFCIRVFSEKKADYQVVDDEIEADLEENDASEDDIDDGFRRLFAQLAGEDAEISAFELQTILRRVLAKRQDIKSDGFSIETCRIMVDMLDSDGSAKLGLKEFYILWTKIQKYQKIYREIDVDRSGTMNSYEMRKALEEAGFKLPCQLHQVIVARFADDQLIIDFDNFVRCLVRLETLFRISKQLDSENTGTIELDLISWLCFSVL
Kind of assay: pig calpain II inhibitor potency, dose response, biochemical, fluorogenic peptide substrate (AID 1420). The assay is classed as functional.

Assay [22] in a line: Luminescence Cell-Based Dose Confirmation HTS to Identify Activators of 5'UTR Stem-Loop Driven Alpha-Synuclein mRNA Translation in H4 Neuroglioblastoma Cells. [Related pubchem assays: 1829 (Project Summary), 1814 (Primary HTS)]. Type of assay: functional.

Activity calls are given as the source filed them.

T1 sequence (P41145 whole entry): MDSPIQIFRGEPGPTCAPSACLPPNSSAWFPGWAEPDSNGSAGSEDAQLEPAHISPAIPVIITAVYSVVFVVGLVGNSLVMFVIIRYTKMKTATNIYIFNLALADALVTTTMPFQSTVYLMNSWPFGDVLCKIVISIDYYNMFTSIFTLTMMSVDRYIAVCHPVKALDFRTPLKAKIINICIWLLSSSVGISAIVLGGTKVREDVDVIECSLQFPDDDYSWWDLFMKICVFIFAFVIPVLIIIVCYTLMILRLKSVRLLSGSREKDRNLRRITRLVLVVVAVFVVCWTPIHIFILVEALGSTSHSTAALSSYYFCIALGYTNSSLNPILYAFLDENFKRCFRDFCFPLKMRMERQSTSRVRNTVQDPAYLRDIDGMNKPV
Mu-type opioid receptor, sequence (P35372 whole entry): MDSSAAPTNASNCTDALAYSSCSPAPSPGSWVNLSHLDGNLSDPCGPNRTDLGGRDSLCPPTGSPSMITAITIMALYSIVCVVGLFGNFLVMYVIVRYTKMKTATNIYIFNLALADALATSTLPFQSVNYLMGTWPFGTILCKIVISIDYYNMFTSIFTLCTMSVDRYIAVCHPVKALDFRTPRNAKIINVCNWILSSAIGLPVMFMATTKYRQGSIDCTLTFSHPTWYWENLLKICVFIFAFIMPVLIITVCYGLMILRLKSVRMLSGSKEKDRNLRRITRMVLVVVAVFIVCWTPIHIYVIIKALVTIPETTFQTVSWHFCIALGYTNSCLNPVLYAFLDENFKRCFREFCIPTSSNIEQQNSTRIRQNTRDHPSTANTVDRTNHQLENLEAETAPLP

What is called IC50 is the concentration that gives 50% inhibition. A word on the EC50: it is the concentration giving half of the maximal effect. Take `CCOc1cc(CNC2CCCC2)cc(Cl)c1OCc1ccccc1`: the IC50 in assay [1] was 2.57 µM; in [2], 7.88 µM (active); in [4], < 3.13 µM (active); in assay [5] it was > 32 µM (inactive). In addition, the concentration for a half-maximal effect (EC50) in assay [3] was 4.22 µM (active); in [6], > 32 µM (inactive); in assay [7], > 32 µM (inactive); in [8], > 31.5 µM (inactive).

In the case of `CCn1nc(-c2ccccc2)nc2c(=O)n(C)c(=O)nc1-2`, the concentration giving a half-maximal response (EC50) in [9] was > 30 µM (not active); in assay [11] it was 1.8 µM (inconclusive); in assay [14], 0.442 µM (active); in [17], > 150 µM (not active); in assay [18] it was 9.43 µM (active); in [19] it was > 120 µM (not active). Also, the EC50 in assay [20] was 2.54 µM (active); in assay [22], > 120 µM (not active). In addition, the IC50 was 13.2 µM (active) in [10]; 36.3 µM (not active) in assay [12]; 0.239 µM (active) in assay [13]; 10.4 µM (active) in assay [15]; 8.91 µM (active) in [16]; 6.11 µM (not active) in assay [21].
